Entries after “also recorded” stand apart in the source; their conditions may differ.
What was measured:
[1] = molecular target: T1, eIF4E (Homo sapiens, UniProt P06730); test: Tryptophan quenching experiments; type: binding; details: 1 μM eIF4E, 0.01-20 μM titrant, excitation 290 nm, emission 355 nm; FIG. 2
T1 construct: made in house; Plasmid and cells were provided by Cyclacel Ltd., Dundee
Description: Tryptophan Quenching Experiments
Tryptophan quenching experiments were performed using an EnVision® multiplate reader with black matte 96-well plates. […] Concentrations tested ranged from 0.01-20 μM. Samples were excited with UV light at 290 nm to minimise contribution from tyrosine fluorescence. Tryptophan was measured at an emission wavelength of 355 nm.

[2] = molecular target: T2, eIF4E cap-binding site (Homo sapiens, UniProt P06730); test: Competitive fluorescence polarization, cap analogue binding assessment (FAM labelled m7GTP); details: eIF4E 250 nM, labelled m7GTP 50 nM; FIG. 1B; listed as EE-02
T2 construct: made in house; Plasmid and cells were provided by Cyclacel Ltd., Dundee
Description: Apparent Kd values were determined by fitting the experimental data to the equations shown below:
[formula] [L]st and [L]t denote labeled ligand and total unlabeled ligand input concentrations, respectively. Kd2 is the dissociation constant of the interaction between the unlabelled ligand and the protein. In all competitive types of experiments, it is assumed that [P]t>[L]st, otherwise considerable amounts of free labeled ligand would always be present and would interfere with measurements. Kd1 is the apparent Kd for the labeled peptide used in the respective experiment. […] Readings were carried out with a Envision Multi-label Reader (PerkinElmer). Experiments were carried out in PBS (2.7 mM KCl, 137 mM NaCl, 10 mM NaHPO4 and 2 mM KHPO4 (pH 7.4)), 3% DMSO (v/v) and 0.1% Tween 20 buffer. All titrations were carried out in triplicate. Curve-fitting was carried out using Prism 4.0 (GraphPad). […]
From these initial results it was predicted the new peptide motif might interact with eIF4E either via a different binding pose at the eIF4G binding site, or at the cap-binding site or elsewhere on the protein. The binding site was initially delineated on eIF4E by using two types of competitive fluorescence polarization experiments, one of which utilised a FAM labelled cap-analogue and the other that used a FAM labelled eIF4G1 derived peptide (FIG. 1).

[3] = molecular target: T1, eIF4E; test: Fluorescence anisotropy direct titration of eIF4E against FAM labelled tracers; details: 50 nM tracer, eIF4E titrated, 1:1 binding model; read-out: Kd for interaction of labelled tracer with eIF4E
Text: Fluorescence Anisotropy Assays and Kd Determination.
Both were used later for subsequent Kd determination in competition experiments.

T1 sequence (P06730 whole entry): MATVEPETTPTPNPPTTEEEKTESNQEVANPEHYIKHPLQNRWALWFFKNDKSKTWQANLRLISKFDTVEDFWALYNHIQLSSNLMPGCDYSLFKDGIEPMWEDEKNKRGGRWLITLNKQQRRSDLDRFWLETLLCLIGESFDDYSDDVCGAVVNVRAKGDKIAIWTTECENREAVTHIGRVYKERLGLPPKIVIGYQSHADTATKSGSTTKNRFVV
T2 sequence (P06730 whole entry): as above

Compound	tryptophan quenching of eIF4E [1]	displacement of fluorescently labelled m7GTP from eIF4E [2]	Kd [3] [nM]
CSCC[C@@H]1NC(=O)[C@H](CCC(=O)O)NC(=O)[C@@H](NC(=O)[C@H](C)N)CSSC[C@@H](C(=O)NCC(N)=O)NC(=O)[C@H](CC(=O)O)NC(=O)[C@H](CCC(N)=O)NC(=O)[C@H](Cc2ccccc2)NC(=O)[C@H](Cc2ccccc2)NC(=O)CNC1=O [EE-2]	significantly different profile to m7GTP/m7GDP	most potent peptide out of the set identified; also recorded: can displace fluorescently labelled m7GTP	
m^7GTP-6-FAM			149

Reference: patent US12338296B2, “Peptides and compounds that bind to elongation initiation factor 4E” (AGENCY FOR SCIENCE, TECHNOLOGY AND RESEARCH, priority 2019, dated 2025)
